From publication PMC5464773 (eLife, 2017)
Like-named read-outs stand apart in the source and are kept apart here.

How the values were obtained:
Mcl-1 = target: T1, Mcl-1 (Homo sapiens, UniProt Q07820); test: Competition fluorescence polarization (anisotropy) with fluoresceinated BIM; format: binding
T1 construct: c-myc
Description: C-myc-tagged receptors were used for all Bcl-2 homologs, as previously described ([DeBartolo et al., 2012]; [Dutta et al., 2010]). Plates were mixed at 23°C for 3 hr. Plates were read again at 24 to check equilibration. Experiments were done in at least triplicate. Data were fit, as described for competition fluorescence anisotropy experiments in [Foight et al. (2014]), to a complete competitive binding model (equation 17 in [Roehrl et al. [2004]]) using a Python script.

[1] = test system: BCR-ABL-expressing B-lineage acute lymphoblastic leukemia cells dependent on Mcl-1; settings: iBH3 fits Mcl-1, sigmoidal dose-response (variable slope); for Bottom (best-fit value) / Top (best-fit value): fit of 3 replicates; for LogEC50 (best-fit value): log of EC50, x axis Log [Peptide M]
Description: (§1) As an additional test for on-pathway activity, we measured cytochrome c release in the same engineered cell lines in response to peptide treatment, using iBH3 profiling ([Ryan et al., 2016]).
(§2) The creation and characterization of the BCR-ABL-expressing B-lineage acute lymphoblastic leukemia suspension cell lines with engineered dependencies on human versions of anti-apoptotic genes is detailed in [Koss et al. (2016)]). Cells were grown in RPMI (Life Technologies, Carlsbad, CA) with 10% fetal bovine serum, 2 mM L-glutamine, 10 mL/L 100x Pen/Strep (Life Technologies # 15140122), 25 mM HEPES and 10 mL/L 100x NEAA (Life Technologies, 11140050). The adherent cell lines PC-3 (RRID: CVCL_0035) and SF295 (RRID: CVCL_1690) are from the NCI60 panel ([Lorenzi et al., 2009]) and were grown in RPMI (Life Technologies) with 10% fetal bovine serum, 2 mM L-glutamine and 10 mL/L 100x Pen/Strep (Life Technologies # 15140122 ). Cell line identities were confirmed by STR profiling. The Lookout Mycoplasma PCR detection kit (Sigma) was used to detect mycoplasma infection.
(§3) Cells were suspended in MEB buffer (150 mM mannitol, 50 mM KCl, 10 mM HEPES, 5 mM succinic acid, 20 μM EGTA, 20 μM EDTA, 0.1% BSA, final pH 7.4) at 0.5*10^6 cells/mL (adherent lines) or 2 *10^6 cells/mL (suspension lines). Cell suspension was added to a 384 non-binding well plate (10 μL/well) containing peptides at 2X final concentration in MEB with 20 μg/mL digitonin. Plates were incubated at 25°C for 1 hr. To terminate exposure, 10 μL of 4% formaldehyde in PBS was added to each well, plates were incubated for 10 min before addition of 10 μL N2 buffer (1.7M Tris, 1.25M glycine, pH 9.1) for 5 min. 10 μL of staining buffer (2% Tween20, 10% BSA, PBS) containing 10 μg/mL Hoechst 33342 and 1.25 μg/mL anti-cytochrome c Alexa647 conjugate (BioLegend clone 6H2.B4) was added to each well before sealing the plate and shaking overnight. The median fluorescence of the cytochrome c channel of Hoechst positive singlets was recorded by an IntelliCyt iQue Screener Plus. Cytochrome c release was determined by normalizing the median fluorescence intensity (MFI) data to positive control wells (Alamethicin) and negative control wells (DMSO) as follows: Cytochromecrelease=1−(MFIsample−MFIAlamethicin)/(MFIDMSO−MFIAlamethicin)

[2] = test system: BCR-ABL-expressing B-lineage acute lymphoblastic leukemia cells dependent on Bfl-1; settings: for HillSlope (best-fit value) / Bottom (best-fit value) / Top (best-fit value) / LogEC50 (best-fit value): iBH3 fits Bfl-1, sigmoidal dose-response (variable slope); for Bottom (best-fit value) / Top (best-fit value): fit of 3 replicates; for cytochrome c release pattern in iBH3: low concentrations, highly primed cells of known anti-apoptotic protein dependency; for LogEC50 (best-fit value): log of EC50, x axis Log [Peptide M]
Description: as §1, §2, §3

Bcl-xL = target: T2, Bcl-xL (Homo sapiens, UniProt Q07817); test: Competition fluorescence polarization (anisotropy) with fluoresceinated BIM; format: binding
T2 construct: c-myc
Description: (§4) Plates were mixed at 23°C for 3 hr. Plates were read again at 24 to check equilibration. Experiments were done in at least triplicate.

Bcl-2 = target: T3, Bcl-2 (Homo sapiens, UniProt P10415); test: as above; format: binding
T3 construct: c-myc
Description: as §4

Bcl-w = target: T4, Bcl-w (Homo sapiens, UniProt Q92843); test: as above; format: binding
T4 construct: c-myc
T4 sequence (Q92843 1-193): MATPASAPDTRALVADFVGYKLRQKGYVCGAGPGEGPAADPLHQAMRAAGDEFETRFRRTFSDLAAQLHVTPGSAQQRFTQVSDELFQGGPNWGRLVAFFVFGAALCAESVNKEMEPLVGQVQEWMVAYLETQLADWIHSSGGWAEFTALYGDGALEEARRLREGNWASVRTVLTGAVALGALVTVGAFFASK
Description: as §4

[3] = competition FP source data, mean of three replicates, values above 5 μM are reported as > 5 μM in the figures, read-out: mean Ki (M) Mcl-1
[4] = competition FP source data, replicate 1
[5] = competition FP source data, replicate 2
[6] = competition FP source data, replicate 3
[7] = competition FP source data, mean of three replicates, values above 5 μM are reported as > 5 μM in the figures, read-out: mean Ki (M) Bcl-xL
[8] = competition FP source data, mean of three replicates, values above 5 μM are reported as > 5 μM in the figures, read-out: mean Ki (M) Bcl-2
[9] = competition FP source data, mean of three replicates, values above 5 μM are reported as > 5 μM in the figures, read-out: mean Ki (M) Bcl-w
[10] = competition FP, 50 nM c-myc-tagged receptor + 25 nM fluoresceinated BIM, Tris pH 7.8, 23°C, 3 hr, mean ± SD of three replicates, read-out: Ki (nM) Bcl-w

T1 sequence (Q07820 whole entry): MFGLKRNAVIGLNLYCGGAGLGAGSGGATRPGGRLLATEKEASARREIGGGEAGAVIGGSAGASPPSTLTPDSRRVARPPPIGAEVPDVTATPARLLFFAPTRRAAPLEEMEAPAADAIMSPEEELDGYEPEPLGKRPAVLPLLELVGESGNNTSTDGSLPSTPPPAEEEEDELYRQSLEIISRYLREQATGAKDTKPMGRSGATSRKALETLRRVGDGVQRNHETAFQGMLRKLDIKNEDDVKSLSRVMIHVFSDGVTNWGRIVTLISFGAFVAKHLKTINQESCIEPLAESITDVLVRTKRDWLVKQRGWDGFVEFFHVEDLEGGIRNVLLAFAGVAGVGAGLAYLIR
T2 sequence (Q07817 whole entry): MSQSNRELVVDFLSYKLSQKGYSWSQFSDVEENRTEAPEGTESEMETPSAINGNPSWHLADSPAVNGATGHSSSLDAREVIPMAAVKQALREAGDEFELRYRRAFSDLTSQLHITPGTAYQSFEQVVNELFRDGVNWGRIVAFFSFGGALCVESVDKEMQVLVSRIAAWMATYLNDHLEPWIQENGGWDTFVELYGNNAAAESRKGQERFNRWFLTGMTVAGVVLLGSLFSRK
T3 sequence (P10415 whole entry): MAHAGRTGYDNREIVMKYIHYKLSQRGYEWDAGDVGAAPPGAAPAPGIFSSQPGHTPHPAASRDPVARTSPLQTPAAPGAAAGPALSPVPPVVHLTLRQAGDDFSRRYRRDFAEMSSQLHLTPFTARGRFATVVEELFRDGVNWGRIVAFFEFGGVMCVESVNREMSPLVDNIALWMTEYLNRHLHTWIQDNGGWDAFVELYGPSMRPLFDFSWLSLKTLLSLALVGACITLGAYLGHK

Ki (M) Mcl-1 (Mcl-1; [4]) [M]	Ki (M) Mcl-1 (Mcl-1; [5]) [M]	Ki (M) Mcl-1 (Mcl-1; [6]) [M]	Ki (Bcl-xL; [7]) [M]	Ki (M) Bcl-xL (Bcl-xL; [4]) [M]	Ki (M) Bcl-xL (Bcl-xL; [5]) [M]	Ki (M) Bcl-xL (Bcl-xL; [6]) [M]	Ki (Bcl-2; [8]) [M]	Ki (M) Bcl-2 (Bcl-2; [4]) [M]	Ki (M) Bcl-2 (Bcl-2; [5]) [M]	Ki (M) Bcl-2 (Bcl-2; [6]) [M]	Ki (Bcl-w; [9]) [M]	Ki (M) Bcl-w (Bcl-w; [4]) [M]	Substance	HillSlope (best-fit value) [1]	Bottom (best-fit value) [1]	Top (best-fit value) [1]	HillSlope (best-fit value) [2]	Bottom (best-fit value) [2]	Top (best-fit value) [2]	cytochrome c release pattern in iBH3 [2]	also measured
6.51e-07	6.19e-07	3.85e-07	3.23e-07	2.75e-07	4.23e-07	2.72e-07	2.06e-06	1.85e-06	2.41e-06	1.93e-06	7.67e-07	7.55e-07	Ac-QWIREIAAGLRRFADILNAQVER-NH2 [FS3]	4.529	0.1359	0.9781	0.832	~ -46.09	0.9862	selectively induced cytochrome c release only in Bfl-1 dependent cell lines	Ki (Mcl-1; [3]): 5.52e-07 M; Ki (M) Bcl-w (Bcl-w; [5]): 8.54e-07 M; Ki (M) Bcl-w (Bcl-w; [6]): 6.93e-07 M
2.37e-06	8.12e-06	1.24e-05	2.38e-06	2.02e-06	2.84e-06	2.27e-06	5.31e-06	8.37e-06	4.66e-06	2.9e-06	7.76e-06	5.7e-06	Ac-QWVREIAAGLRLAADNVNAQLER-NH2 [FS1]	1.721	0.09874	0.9023	2.245	0.8808	0.9982	selectively induced cytochrome c release only in Bfl-1 dependent cell lines	Ki (Mcl-1; [3]): 7.64e-06 M; Ki (Mcl-1; competition FP, 50 nM c-myc-tagged receptor + 25 nM fluoresceinated BIM, Tris pH 7.8, 23°C, 3 hr, mean ± SD of three replicates, read-out: Ki (nM) Mcl-1): > 5e-06 M; LogEC50 (best-fit value) [1]: -4.595; LogEC50 (best-fit value) [2]: -6.521; Ki (Bcl-2; competition FP, 50 nM c-myc-tagged receptor + 25 nM fluoresceinated BIM, Tris pH 7.8, 23°C, 3 hr, mean ± SD of three replicates, read-out: Ki (nM) Bcl-2): > 5e-06 M; Ki (M) Bcl-w (Bcl-w; [5]): 7.42e-06 M; Ki (M) Bcl-w (Bcl-w; [6]): 1.02e-05 M; Ki (Bcl-w; [10]): > 5e-06 M

Substance	Ki (M) Mcl-1 (Mcl-1; [4]) [M]	Ki (M) Mcl-1 (Mcl-1; [5]) [M]	Ki (M) Mcl-1 (Mcl-1; [6]) [M]	Ki (Bcl-xL; [7]) [M]	Ki (M) Bcl-xL (Bcl-xL; [4]) [M]	Ki (M) Bcl-xL (Bcl-xL; [5]) [M]	Ki (M) Bcl-xL (Bcl-xL; [6]) [M]	Ki (Bcl-2; [8]) [M]	Ki (M) Bcl-2 (Bcl-2; [4]) [M]	Ki (M) Bcl-2 (Bcl-2; [5]) [M]	Ki (M) Bcl-2 (Bcl-2; [6]) [M]	Ki (Bcl-w; [9]) [M]	Ki (M) Bcl-w (Bcl-w; [4]) [M]	HillSlope (best-fit value) [1]	Bottom (best-fit value) [1]	Top (best-fit value) [1]	HillSlope (best-fit value) [2]	Bottom (best-fit value) [2]	Top (best-fit value) [2]	cytochrome c release pattern in iBH3 [2]	also measured
Ac-QWVREIAAGLRRAADDVNAQVER-NH2 [FS2]	2.88e-06	3.39e-06	3.32e-06	7.07e-06	6.54e-06	1e-05	4.66e-06	2.41e-06	2.55e-06	2.86e-06	1.82e-06	8.27e-06	1.14e-05	1.725	0.1056	1.316	0.6008	~ -2.146	1.01	selectively induced cytochrome c release only in Bfl-1 dependent cell lines	fold weaker binding to Mcl-1 than to Bfl-1 (Mcl-1; ratio of Ki values from competition FP): > 100 fold; LogEC50 (best-fit value) [1]: -4.058; LogEC50 (best-fit value) [2]: ~ -9.301; Ki (Bcl-xL; competition FP, 50 nM c-myc-tagged receptor + 25 nM fluoresceinated BIM, Tris pH 7.8, 23°C, 3 hr, mean ± SD of three replicates, read-out: Ki (nM) Bcl-xL): > 5e-06 M; Ki (M) Bcl-w (Bcl-w; [5]): 6.45e-06 M; Ki (M) Bcl-w (Bcl-w; [6]): 6.96e-06 M; Ki (Bcl-w; [10]): > 5e-06 M
